Results published in US12534501B2, “Targeting deregulated Wnt signaling in cancer using stabilized alpha-helices of BCL-9” (Dana-Farber Cancer Institute, Inc., priority 2011, dated 2026).
Numbered stars: 1 amine (or outer) side, 2 acyl side, 3 side chain; on linkers, the order of the positions; unused ones are H or OH. Bridge positions count the residues as written; N and C are the ends. Square brackets hold non-standard residues; d marks the D form. Peptide text beside a SMILES is read from it. ξ: configuration not given here. ξαMeNle(6-ylidene) = CC(CCCC=[*:3])(N[*:1])C(=O)[*:2]; Nle = CCCC[C@H](N)C(=O)O

Tests used:
Type in all cases: cell-based
[1] = test system: VEGF secretion by Colo320 cells; assay: VEGF ELISA; conditions: 5 μM, 24 h
Description: (§1) VEGF ELISA was performed as previously described (Mani, M. et al. Cancer Res 69, 7577-86 (2009)). Briefly, cells (1×10^6) were treated with vehicle and SAH-BCL9 peptides (5 μM) for 24 h. VEGF levels in the supernatant were then measured according to the manufacturer's ELISA protocol (DuoSet, R&D Systems).

[2] = test system: VEGF secretion by MM1S cells; assay: VEGF ELISA; conditions: 5 μM, 24 h
Description: as §1

[3] = test system: Wnt target genes in DLD1 colon cancer cell line; assay: Affymetrix gene expression profiling / GSEA and qRT-PCR validation
Description: RNA from SAH-BCL9B and vehicle (0.1% DMSO)-treated cells were run on an Affymetrix U133A 2.0 array chip as described (Mollering et al, Nature 462, 182-8 (2009). Statistical analyses were performed in R (http://www.r-project.org). The array data were normalized with rma method (Bolstad, B. M., et al. Bioinformatics 19, 185-93 (2003)) as implemented in the Affy package (http://www.bioconductor.org/packages/2.6/bioc/html/affy.html) and differential expression calculated with empirical Bayes shrinkage of the standard errors toward a common value with LIMMA (http://www.bioconductor.org/packages/2.6/bioc/html/limma.html) (McCarthy, D. J. & Smyth, G. K. Bioinformatics 25, 765-71 (2009); Smyth, G. K. Stat Appl Genet Mol Biol 3, Article3 (2004)). Gene set enrichment analysis was performed using GSEA software (version 2.06) and mSigDB (version 2.5) (Subramanian, A. et al. Proc Natl Acad Sci USA 102, 15545-50 (2005)).
To further investigate the specificity of SAH-BCL9B in blocking Wnt transcriptional activity, comparative genome-wide expression analyses of Wnt target genes in the DLD1 colon cancer cell line, for which a Wnt transcription pathway signature has been described (L. G. Van der Flier et al., Gastroenterology 132, 628 (2007)), was performed. RNA from triplicate SAH-BCL9B- and vehicle-treated DLD1 samples (10 μM each for 12 hours) was isolated for gene expression profiling analyses. Affymetrix Human U133 Plus 2.0 arrays were processed using the function of the affy Bioconductor package (URL http://www.R-project.org.). Gene sets were compiled from Van der Flier et al. and gene set enrichment and statistical analyses performed using GSEA software (http://www.broad.mit.edu/GSEA) and a two-tailed t-test, respectively. Microarray data has been deposited in the Gene Expression Omnibus (http://www.ncbi.nlm.nih.gov/geo) and comply with MIAME annotation standards. […]

MM1S cells = assay: Cell viability, CellTiter-Glo; conditions: 72 h, 5 μM
Description: (§2) Cell proliferation assays were performed as described (Sukhdeo, K. et al. Proc Natl Acad Sci USA 104, 7516-21 (2007)). Cell viability was measured using the CellTiter-Glo assay (Promega) according to the manufacturer's instructions. Apoptosis was evaluated by activated caspase-3 and PARP western blotting. See results in FIG. 3A-FIG. 3F, FIG. 13, and FIG. 20.

Colo320 cells [4] = assay: Cell viability, CellTiter-Glo; conditions: 72 h, 5 μM
Description: as §2

[5] = test system: INA-6 multiple myeloma cells; assay: Cell proliferation, thymidine incorporation; conditions: 5 μM, 24 h, vs vehicle and SAH-BCL9B(R359E)
Description: as §2

Colo320 cells [6] = assay: Cellular uptake of FITC-labelled peptides; conditions: FITC derivatives
Description: For fluorescence microscopy evaluation, cells were prepared using a cytocentrifuge (Thermo Shandon) and fixed as previously described (Sukhdeo, K. et al. Proc Natl Acad Sci USA 104, 7516-21 (2007); Mani, M. et al. Cancer Res 69, 7577-86 (2009)). Anti-β-catenin and rhodamine-conjugated secondary antibodies (5 μg/ml; Southern Biotechnology) were employed. Images were obtained using a BioRad Radiance 2000 laser scanning confocal microscope. Cell permeability of SAH-BCL9B and SAH-BCL9B(R359E) were determined by fluorescence microscopy of cells treated with FITC-derivatives of the above described stapled peptides and also by blotting/fluorescence scan, performed as previously described (Pitter, K. et al Methods Enzymol, 446, (2008), 387-408; Walensky, L. D. et al. Science 305, 1466-70 (2004). See results in FIG. 1E, FIG. 7.

| Compound | VEGF secretion [1] | VEGF secretion [2] | VEGF-A expression ([3]; DLD1) | Axin2 expression ([3]; DLD1, 10 μM, 12 hours) | GSEA correlation of down-regulated genes with dominant-negative TCF1 and TCF4 ([3]; DLD1, 10 μM, 12 hours, adenoma and carcinoma signatures) | viability (MM1S cells) | viability (Colo320 cells [4]) | growth by thymidine incorporation [5] | cellular uptake (Colo320 cells [6]) |
| --- | --- | --- | --- | --- | --- | --- | --- | --- | --- |
| CCCC[C@H](NC(=O)[C@H](CCCNC(=N)N)NC(=O)[C@H](CCC(N)=O)NC(=O)[C@@H](NC(=O)C1(C)CCCC=CCCCC(C)(NC(=O)[C@H](CC(C)C)NC(=O)[C@H](CO)NC(=O)[C@H](CCCNC(=N)N)NC(=O)[C@H](CCC(=O)O)NC(=O)[C@H](CCCNC(=N)N)NC(=O)[C@H](Cc2c[nH]cn2)NC(=O)[C@H](CCC(=O)O)NC(=O)[C@H](CC(C)C)NC(=O)[C@H](CCC(N)=O)NC(=O)[C@H](CCC(=O)O)NC(=O)[C@H](CCC(N)=O)NC(=O)[C@H](CO)NC(=O)[C@H](CC(C)C)NC(C)=O)C(=O)N[C@@H]([C@@H](C)O)C(=O)N[C@@H](CC(C)C)C(=O)N[C@@H](CCCNC(=N)N)C(=O)N1)[C@@H](C)CC)C(=O)N[C@@H](CC(C)C)C(=O)N[C@@H](Cc1ccccc1)C(N)=O (stereo partly drawn) [SAH-BCL9B] (Ac-LSQEQLEHRERSL[ξαMeNle(6-ylidene)]TLR[ξαMeNle(6-ylidene)]IQR[Nle]LF-NH2; staple 14-18) | decreased VEGF secretion | decreased VEGF secretion | downregulated | among the most down-regulated genes | strong and statistically significant correlation | no effect | no effect | significantly reduced growth |  |
| SAH-BCL9B(R359E): SEQ ID NO: 7: LSQEQLEHEERSLXTLRXIQRBLF; reverse polarity point mutant, negative control of SAH-BCL9B |  |  |  |  |  |  |  |  | similar |
